Test results from patent publication US5480892A, “(N-phthalimidoalkyl)piperidines” (The Du Pont Merck Pharmaceutical Company, priority 1994, dated 1996).

Legend:
Dopamine (D-2) receptor = molecular target: T1, Dopamine (D-2) receptor (Cavia porcellus, UniProt H0VE83); test: Dopamine Receptor Binding; type: guinea pig, striatum membranes; settings: 0.15 nM [3H]spiperone, guinea pig striatum, pH 7.7, 15 min 37° C.; read-out: Receptor Binding Affinity Dopamine (D-2) (Ki class)
T1 construct: Membranes were prepared from guinea pig striatum; from tissue; host or cells: guinea pig striatum membranes
T1 sequence (H0VE83 1-446): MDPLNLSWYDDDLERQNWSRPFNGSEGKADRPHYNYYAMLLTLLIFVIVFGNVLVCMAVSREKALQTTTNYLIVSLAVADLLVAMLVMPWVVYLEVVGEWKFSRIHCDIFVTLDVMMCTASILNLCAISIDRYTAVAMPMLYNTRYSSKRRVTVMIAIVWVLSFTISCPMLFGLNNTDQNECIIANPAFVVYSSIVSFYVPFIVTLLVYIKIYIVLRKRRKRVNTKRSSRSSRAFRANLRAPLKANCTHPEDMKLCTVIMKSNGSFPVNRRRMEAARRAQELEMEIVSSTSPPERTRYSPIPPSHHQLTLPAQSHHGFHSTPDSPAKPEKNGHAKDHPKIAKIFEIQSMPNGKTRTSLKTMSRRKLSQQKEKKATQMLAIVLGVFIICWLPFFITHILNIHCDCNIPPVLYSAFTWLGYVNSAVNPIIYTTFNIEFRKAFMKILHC

Sigma receptor = molecular target: T2, Sigma receptor (Cavia porcellus, UniProt Q60492); test: Sigma Receptor Binding Assay; type: guinea pig (male Hartley), brain membranes; settings: 1 nM (+)-[3H]SKF 10,047, guinea pig brain membranes, pH 7.4, 45 min room temperature; read-out: Receptor Binding Affinity Sigma (Ki class)
T2 construct: Brain membranes were prepared by the method of Tam; from tissue; host or cells: guinea pig whole brain membranes
T2 sequence (Q60492 whole entry): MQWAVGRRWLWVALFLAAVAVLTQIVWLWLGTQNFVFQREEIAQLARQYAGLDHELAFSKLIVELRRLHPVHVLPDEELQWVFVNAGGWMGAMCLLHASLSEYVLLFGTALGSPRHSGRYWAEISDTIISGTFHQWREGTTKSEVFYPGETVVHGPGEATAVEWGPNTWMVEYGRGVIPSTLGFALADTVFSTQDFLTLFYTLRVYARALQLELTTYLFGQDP

A Ki (Dopamine (D-2) receptor) greater than 500 nM and a Ki (Sigma receptor) of 31 to 100 nM were found for O=C1[C@@H]2CCCC[C@H]2C(=O)N1CC1CCN(CCc2ccccc2)CC1 (relative stereo) [Example 22] in this work.

A Ki (Dopamine (D-2) receptor) greater than 500 nM and a Ki (Sigma receptor) of 31 to 100 nM were found for O=C1[C@H]2CC=CC[C@H]2C(=O)N1CC1CCN(CCc2ccccc2)CC1 [Example 1, 2-[1-(2-Phenylethyl)-4-piperidinylmethyl]-cis-3a; 4,7,7a-tetrahydro-1H-isoindole-1,3(2H)-dione] in this work.

A Ki (Dopamine (D-2) receptor) greater than 500 nM and a Ki (Sigma receptor) of 31 to 100 nM were found for O=C1c2ccccc2C(=O)N1CC1CCN(CCc2ccccc2)CC1 [Example 2, 2-[1-(2-Phenylethyl)-4-piperidinylmethyl]-1H-isoindole-1,3(2H)-dione] in this work.

A Ki (Dopamine (D-2) receptor) greater than 500 nM and a Ki (Sigma receptor) of 1 to 30 nM were found for O=C1c2ccccc2C(=O)N1CCCC1CCCN(Cc2ccccc2)C1 (centres unmarked) [Example 4, 2-[3-[1-(phenylmethyl)-3-piperidinyl]propyl]-1H-isoindole-1,3(2H)-dione] in this work.

A Ki (Dopamine (D-2) receptor) greater than 500 nM and a Ki (Sigma receptor) of 101 to 500 nM were found for O=C1C2CCCCC2C(O)N1CC1CCN(CCc2ccccc2)CC1 (stereo not drawn) [Example 5, cis-Octahydro-3-hydroxy-2-[[1-(2-phenylethyl)-4-piperidinyl]methyl]-1H-isoindol-1-one] in this work.

A Ki (Dopamine (D-2) receptor) greater than 500 nM and a Ki (Sigma receptor) of 101 to 500 nM were found for O=C1c2ccccc2C(O)N1CC1CCN(CCc2ccccc2)CC1 (centres unmarked) [Example 7, 2,3-Dihydro-3-hydroxy-2-[[1-(2-phenylethyl]-4-piperidinyl]methyl]-1H-isoindol-1-one] in this work.

A Ki (Dopamine (D-2) receptor) greater than 500 nM and a Ki (Sigma receptor) of 101 to 500 nM were found for CC1(O)C2CCCCC2C(=O)N1CC1CCN(CCc2ccccc2)CC1 (stereo not drawn) [Example 8, cis-Octahydro-3-hydroxy-3-methyl-2-[[1-(2-phenylethyl)4-piperidinyl]methyl]-1H-isoindol-1-one] in this work.

A Ki (Dopamine (D-2) receptor) of 101 to 500 nM and a Ki (Sigma receptor) of 1 to 30 nM were found for O=C1c2cccc3cccc(c23)C(=O)N1CCC1CCN(CCc2ccccc2)CC1 [Example 9] in this work.

A Ki (Dopamine (D-2) receptor) of 31 to 100 nM and a Ki (Sigma receptor) of 1 to 30 nM were found for O=C1C2C3C=CC(C4CCC34)C2C(=O)N1CC1CCN(CCc2c[nH]c3ccccc23)CC1 (centres unmarked) [Example 10] in this work.

A Ki (Dopamine (D-2) receptor) greater than 500 nM and a Ki (Sigma receptor) of 1 to 30 nM were found for O=C1[C@H]2CCCC[C@H]2C(=O)N1C1CCN(Cc2ccccc2)CC1 [Example 12] in this work.

A Ki (Dopamine (D-2) receptor) greater than 500 nM and a Ki (Sigma receptor) of 31 to 100 nM were found for O=C1[C@H]2CCCC[C@H]2C(=O)N1C1CCN(CCc2ccccc2)CC1 [Example 13] in this work.

A Ki (Dopamine (D-2) receptor) greater than 500 nM and a Ki (Sigma receptor) of 1 to 30 nM were found for O=C1[C@H]2CCCC[C@H]2C(=O)N1CC1CCN(Cc2ccccc2)CC1 [Example 14] in this work.

A Ki (Dopamine (D-2) receptor) greater than 500 nM and a Ki (Sigma receptor) of 31 to 100 nM were found for O=C1[C@H]2CCCC[C@H]2C(=O)N1CC1CCN(CCCc2ccccc2)CC1 [Example 16] in this work.

A Ki (Dopamine (D-2) receptor) greater than 500 nM and a Ki (Sigma receptor) of 31 to 100 nM were found for O=C1[C@H]2CCCC[C@H]2C(=O)N1CC1CCN(Cc2cccc(C(F)(F)F)c2)CC1 [Example 18] in this work.

A Ki (Dopamine (D-2) receptor) of 101 to 500 nM and a Ki (Sigma receptor) of 101 to 500 nM were found for O=C1[C@H]2CCCC[C@H]2C(=O)N1CC1CCN(CCc2ccc(O)cc2)CC1 [Example 19] in this work.

A Ki (Dopamine (D-2) receptor) greater than 500 nM and a Ki (Sigma receptor) of 1 to 30 nM were found for O=C1[C@H]2CCCC[C@H]2C(=O)N1CC1CCN(Cc2ccc(F)cc2)CC1 [Example 20] in this work.

A Ki (Dopamine (D-2) receptor) greater than 500 nM and a Ki (Sigma receptor) of 101 to 500 nM were found for O=C1[C@H]2CCCC[C@H]2C(=O)N1CC1CCN(CC2CC2)CC1 [Example 21] in this work.

A Ki (Dopamine (D-2) receptor) greater than 500 nM and a Ki (Sigma receptor) of 1 to 30 nM were found for O=C1[C@H]2CCCC[C@H]2C(=O)N1CCC1CCN(CCc2ccccc2)CC1 [Example 24] in this work.

A Ki (Dopamine (D-2) receptor) greater than 500 nM and a Ki (Sigma receptor) of 1 to 30 nM were found for O=C1[C@H]2CCCC[C@H]2C(=O)N1CC1CCN(CCc2ccc(Cl)cc2)CC1 [Example 26] in this work.

A Ki (Dopamine (D-2) receptor) greater than 500 nM and a Ki (Sigma receptor) of 1 to 30 nM were found for O=C1[C@H]2CCCC[C@H]2C(=O)N1CC1CCN(CCc2ccc([N+](=O)[O-])cc2)CC1 [Example 27] in this work.

A Ki (Dopamine (D-2) receptor) greater than 500 nM and a Ki (Sigma receptor) of 1 to 30 nM were found for CN(C)c1ccc(CCN2CCC(CN3C(=O)[C@H]4CCCC[C@H]4C3=O)CC2)cc1 [Example 28] in this work.

A Ki (Dopamine (D-2) receptor) greater than 500 nM and a Ki (Sigma receptor) of 31 to 100 nM were found for O=C1[C@H]2CCCC[C@H]2C(=O)N1CC1CCN(CCc2ccc(F)cc2)CC1 [Example 29] in this work.

A Ki (Dopamine (D-2) receptor) of 101 to 500 nM and a Ki (Sigma receptor) of 1 to 30 nM were found for O=C1[C@H]2CCCC[C@H]2C(=O)N1CC1CCN(CCc2ccc(Br)cc2)CC1 [Example 30] in this work.

A Ki (Sigma receptor) of 31 to 100 nM was found for O=C1C2C3C=CC(C4CCC34)C2C(=O)N1CC1CCN(CCc2ccccc2)CC1 (centres unmarked) [Example 113] in this work.
